The source made the active and inactive calls. No cut-off for these calls is given here.
Legend:
[1] = Antitumor activity against human T47D cells xenografted in nude mouse assessed as tumor weight at 40 mg/kg/day, ip administered daily for 18 days measured every 3 days during compound dosing (reference value: 882 +/- 149 mg); format: functional
[2] = system: T47D; test: Selectivity index, ratio of IC50 for HAF cells to IC50 for human T47D cells; format: functional
[3] = system: MCF7; test: Selectivity index, ratio of IC50 for HAF cells to IC50 for human MCF7 cells; format: functional
[4] = Selectivity index, ratio of IC50 for HAF cells to IC50 for human MDA-MB-231 cells; format: functional
[5] = system: HCT-116; test: Selectivity index, ratio of IC50 for HAF cells to IC50 for human HCT116 cells; format: functional
[6] = system: Mus musculus; test: Toxicity in nude mouse xenografted with human T47D cells assessed as body weight loss at 20 to 40 mg/kg/day, ip administered daily for 18 days measured every 3 days during compound dosing; format: organism-based; conditions: in vivo
[7] = system: T47D; test: Induction of apoptosis in human T47D cells assessed as early apoptotic cells at 20 uM after 48 hrs by Annexin V-FITC/propidium iodide staining based flow cytometry (reference value: 1.49 %); format: functional
[8] = system: T47D; test: (§1) Antimigratory activity in human T47D cells assessed as inhibition of cell migration after 12 hrs by crystal violet staining based transwell migration assay; format: functional
[9] = as §1; format: functional
[10] = system: Mus musculus; test: Toxicity in nude mouse xenografted with human T47D cells assessed as incidence of impaired posture or movement at 20 to 40 mg/kg/day, ip administered daily for 18 days measured every 3 days during compound dosing; format: organism-based; conditions: in vivo
[11] = Antiproliferative activity against HAF cells after 96 hrs by SRB assay; format: cell-based; conditions: Homo sapiens
[12] = Antiproliferative activity against human HL60 cells after 96 hrs by SRB assay; format: functional, cell-based; conditions: HL-60, 96 h
[13] = Antiproliferative activity against human MCF7 cells after 96 hrs by SRB assay; format: functional, cell-based; conditions: MCF7, 96 h
[14] = system: Mus musculus; test: Toxicity in nude mouse xenografted with human T47D cells assessed as organ damage at 20 to 40 mg/kg/day, ip administered daily for 18 days; format: organism-based; conditions: in vivo, 432 h
[15] = Antitumor activity against human T47D cells xenografted in nude mouse assessed as tumor weight at 20 mg/kg/day, ip administered daily for 18 days measured every 3 days during compound dosing (reference value: 882 +/- 149 mg); format: functional
[16] = system: Mus musculus; test: Toxicity in nude mouse xenografted with human T47D cells assessed as effect on food and water withdrawal at 20 to 40 mg/kg/day, ip administered daily for 18 days measured every 3 days during compound dosing; format: organism-based; conditions: in vivo
[17] = Antiproliferative activity against human MDA-MB-231 cells after 96 hrs by SRB assay; format: functional, cell-based; conditions: MDA-MB-231, 96 h
[18] = system: T47D; test: Induction of apoptosis in human T47D cells assessed as late apoptotic cells at 10 uM after 48 hrs by Annexin V-FITC/propidium iodide staining based flow cytometry (reference value: 2.72 %); format: functional
[19] = system: DU-145; test: Selectivity index, ratio of IC50 for HAF cells to IC50 for human DU145 cells; format: functional
[20] = Selectivity index, ratio of IC50 for HAF cells to IC50 for human HT-29 cells; format: functional
[21] = system: T47D; test: (§2) Inhibition of colony formation in human T47D cells after 7 days by crystal violet staining based assay; format: functional, cell-based
[22] = as §2; format: functional, cell-based; conditions: 168 h
[23] = system: T47D; test: Induction of apoptosis in human T47D cells assessed as early apoptotic cells at 10 uM after 48 hrs by Annexin V-FITC/propidium iodide staining based flow cytometry (reference value: 1.49 %); format: functional
[24] = system: T47D; test: Induction of apoptosis in human T47D cells assessed as late apoptotic cells at 20 uM after 48 hrs by Annexin V-FITC/propidium iodide staining based flow cytometry (reference value: 2.72 %); format: functional
[25] = system: T47D; test: Induction of apoptosis in human T47D cells assessed as late apoptotic cells at 5 uM after 48 hrs by Annexin V-FITC/propidium iodide staining based flow cytometry (reference value: 2.72 %); format: functional
[26] = system: HL-60; test: Selectivity index, ratio of IC50 for HAF cells to IC50 for human HL60 cells; format: functional
[27] = system: Mus musculus; test: Acute toxicity in nude mouse xenografted with human T47D cells assessed as effect on the survival rate at 20 to 40 mg/kg/day, ip administered daily for 18 days measured on day 18 post last dose; format: organism-based; conditions: in vivo, 432 h
[28] = system: T47D; test: Induction of apoptosis in human T47D cells assessed as early apoptotic cells at 5 uM after 48 hrs by Annexin V-FITC/propidium iodide staining based flow cytometry (reference value: 1.49 %); format: functional
[29] = Antiproliferative activity against human T47D cells after 96 hrs by SRB assay; format: functional, cell-based
[30] = Antiproliferative activity against human HCT116 cells after 96 hrs by SRB assay; format: functional, cell-based; conditions: HCT-116, 96 h
[31] = system: T47D; test: Antimigratory activity in human T47D cells assessed as inhibition of cell migration at 20 uM after 12 hrs by crystal violet staining based transwell migration assay; format: functional
[32] = Antiproliferative activity against human DU145 cells after 96 hrs by SRB assay; format: functional, cell-based; conditions: DU-145, 96 h
[33] = Potency index, ratio of podophyllotoxin IC50 to compound IC50 for human T47D cells; format: functional
[34] = Antitumor activity against human T47D cells xenografted in nude mouse assessed as tumor volume at 20 mg/kg/day, ip administered daily for 18 days measured every 3 days during compound dosing (reference value: 1220 +/- 127 mm3); format: functional
[35] = system: Mus musculus; test: Toxicity in nude mouse xenografted with human T47D cells assessed as diarrhoea at 20 to 40 mg/kg/day, ip administered daily for 18 days; format: organism-based; conditions: in vivo, 432 h
[36] = Antiproliferative activity against human HT-29 cells after 96 hrs by SRB assay; format: functional, cell-based; conditions: HT-29, 96 h
[37] = Antiproliferative activity against human PC3 cells after 96 hrs by SRB assay; format: functional, cell-based; conditions: PC-3, 96 h
[38] = Antitumor activity against human T47D cells xenografted in nude mouse assessed as tumor volume at 40 mg/kg/day, ip administered daily for 18 days measured every 3 days during compound dosing (reference value: 1220 +/- 127 mm3); format: functional
[39] = system: PC-3; test: Selectivity index, ratio of IC50 for HAF cells to IC50 for human PC3 cells; format: functional

COc1cc2c(cc1C(=O)Nc1ccc(N(C)C)cc1)CC[C@H]1C(C)(C)[C@@H](O)CC[C@]21C
Activity [1]: 320 mg | Ratio IC50 [2]: 13.8 | Ratio IC50 [3]: 13.8 | Ratio IC50 [4]: 13.8 | Ratio IC50 [5]: 13.8 | Activity [6]: Non-Toxic | Activity [7]: 24.58% | Activity [8]: Dose-dependent effect | EC50 [9]: 6420 nM | Activity [10]: Non-Toxic | IC50 [11]: 4540 nM | IC50 [12]: 40 nM | IC50 [13]: 280 nM | Activity [14]: Non-Toxic | Activity [15]: 550 mg | Activity [16]: Non-Toxic | IC50 [17]: 320 nM | Activity [18]: 1.09% | Ratio IC50 [19]: 13.8 | Ratio IC50 [20]: 13.8 | Activity [21]: Dose-dependent effect | EC50 [22]: 2.56 nM | Activity [23]: 16.86% | Activity [24]: 1.29% | Activity [25]: 0.49% | Ratio IC50 [26]: 13.8 | Activity [27]: Non-Toxic | Activity [28]: 4.31% | IC50 [29]: 10 nM | IC50 [30]: 570 nM | Activity [31]: Active | IC50 [32]: 280 nM | Ratio IC50 [33]: 25 | Activity [34]: 654 mm3 | Activity [35]: Non-Toxic | IC50 [36]: 590 nM | IC50 [37]: 540 nM | Activity [38]: 401 mm3 | Ratio IC50 [39]: 13.8
